In US20210052679A1, “PROBIOTIC DELIVERY OF GUIDED ANTIMICROBIAL PEPTIDES” (priority 2019, published 2021):

Experiments:
H. pylori [1] = experiment: L. lactis/H. pylori co-culture and qPCR on VacA gene; assay type: cell-based, Helicobacter pylori; settings: 24 h co-culture with L. lactis expressing AMP/gAMP; FIG. 10
Protocol: In the co-cultures, different dilutions of L. lactis were used but each well had 10 μl of H. pylori culture (˜3000 CFUs). The L. lactis secreted AMP, gAMP or contained an empty expression vector. Alyteserin and CRAMP were the AMPs tested. These were constructed either genetically fused to the multimerin-derived guide peptide (guide AMP or gAMP) or not (AMP). The amount of H. pylori present in the co-culture at any given time point was measured by qPCR, using primers specific for the VacA gene itself, which codes for the receptor protein to which the gAMP binds. The entire experiment was run in triplicate and the growth of H. pylori after 24 h in the presence of L. lactis expressing various AMPs or gAMPs is shown in FIG. 10.
L. lactis AMP/gAMP clones were propagated from glycerol stocks and grown in GM17 broth overnight with erythromycin (5 μg/ml) with no shaking. H. pylori stocks were first propagated on Blood-TS agar overnight with microaerobic condition and >5% CO2 environment. Then colonies from the plate were transferred to a TS broth with newborn calf serum (5%) and grown overnight under microaerobic condition and >5% CO2 environment. The L. lactis cultures were serially diluted in a 96-well culture plate with TSB broth to make up a volume of 100 μL. To each well, 10 μL of the overnight H. pylori culture was added and each well volume was brought up to 200 μL with more TS broth. The plate was left to grow overnight in a microaerobic environment with >5% CO2. After 24 h, well contents from the culture plate were transferred to a 96-well PCR plate. […] The qPCR was done using primers for VacA gene to quantify H. pylori (forward: 5′-[…]-3′ (SEQ ID NO:12), reverse: 5′-[…]-3′ (SEQ ID NO:13) and primers for acma gene for quantifying L. lactis. Standard curves for H. pylori and L. lactis were constructed by determining CT values for different dilutions of the overnight cultures of the respective bacteria (1/10, 1/100, 1/1000, 1/10000) in the qPCR plates, the CFUs for the dilutions were determined by plating on their respective agar plates.

H. pylori [2] = experiment: Therapeutic control of H. pylori in mice (qPCR of stomach fluid); assay type: in vivo, mouse; settings: at Day 10, within each AMP/gAMP pair
Text: These mice were inoculated with H. pylori and the H. pylori was allowed to establish itself in the mouse stomach for 3 days, with daily inoculations to ensure establishment. The mice were then given L. lactis secreting AMP or gAMP to therapeutically treat the H. pylori infection. Stomach samples were collected on Day 0 before H. pylori inoculation; resuspended H. pylori were fed by oral gavage once daily for 3 consecutive days; stomach samples were then collected on Day 5 to test for H. pylori presence and on Day 5 resuspended L. lactis were fed to the mice; subsequent stomach samples were collected on Day 8 and 10.
(§1) The L. lactis cultures were propagated overnight as described above. The overnight cultures were spun down at 4000 g for 15 min at 4° C. The pellets were resuspended in sterile PBS. H. pylori stocks were grown overnight on Blood-TS agar as described above and then scraped by a sterile loop and resuspended in sterile PBS. The either bacterial suspension were fed to the mice using 1.5 ga oral gavage needle not exceeding half their stomach volume (˜250 μL). The colony forming units (CFUs) of the resuspension being fed were determined by diluting the resuspension 1/1000 and 1/10000 times and plating on appropriate plates. Pre- and post-inoculation samples from the mouse stomach were collected by flushing their stomach with excess PBS (˜300 μL) and the stomach fluid was collected by reversing the oral gavage injection until the vacuum was maintained.
(§2) The supernatants were collected and plated in a 96-well plate and qPCR was performed with primers for the VacA gene to quantify for H. pylori and primers for the acma gene to quantify for L. lactis. Standard curves for each bacterium against their CT values were constructed by including different dilutions of the overnight cultures of the respective bacteria (1/10, 1/100, 1/1000, 1/10000) in the qPCR and plating those dilutions on respective plates to determine the corresponding CFU values. Each data point represents at least 3 replicate mice.
This was used to generate CFU/μl data from qPCR CT values in FIG. 14.

E. coli = E. coli viability with supernatants of Lactococcus lactis broth cultures; assay type: cell-based, Escherichia coli; settings: L. lactis culture supernatant, 4 hours of exposure; FIG. 8
Text: This is reported in FIG. 8 as the survival of E. coli in the presence of broth culture of Lactococcus lactis secreting antimicrobial peptide with or without a guide peptide. […] It should be noted that the legend is in reverse order of the lines, top to bottom, with the upper line in the graph being the buffer control and the lower line being vancomycin. To obtain the results shown in FIG. 8, cultures of Lactococcus lactis containing either the empty pT1bin1 vector, pT1bin1 harboring the antimicrobial peptide laterosporulin, or pT1bin1 harboring laterosporulin genetically fused to the guide peptide from multimerin were centrifuged to remove bacterial cells and the resulting supernatants were added to separate starter cultures of E. coli to check for inhibition of E. coli growth. The starter culture used supplying all replicates consisted of 500 μl of overnight culture of E. coli diluted in 50 ml of LB broth. […] E. coli viability was measured by plating onto LB agar plates the cultures in each well after 4 hours of exposure to supernatant or antibiotic. The resulting colonies appearing on the plates were recorded, with the undiluted buffer control treatment being set to 100% and all other treatments being converted to a fraction of this value, as plotted on the y-axis.

H. pylori [3] = experiment: Prophylactic control of H. pylori in mice (qPCR of stomach fluid); assay type: in vivo, mouse; settings: Day 12; probiotic pre-treatment before H. pylori challenge; FIG. 15
Protocol: as §1
as §2, with “mice. […]” for “mice.”

[4] = system: Staphylococcus aureus and Staphylococcus epidermidis; experiment: In vitro bactericidal activity assay, targeted staphylococci; assay type: cell-based; settings: S. aureus and S. epidermidis
Protocol: The Ulp-1 protease-cleaved proteins were tested for antimicrobial assays against four strains of bacteria: Staphylococcus aureus, Staphylococcus epidermidis, Enterococcus faecalis and Bacillus subtilis. These four species were selected because they are gram positive and the AMPs plectasin and eurocin are specifically active against gram positive bacteria (Mygind et al. 2005, Oeemig et al. 2012). The component controls were free SUMO protein and synthetically produced A12C peptide. Vancomycin was used as the positive control. The standard protocol for a microtiter plate assay with serial dilution was used in which serial 2-fold dilutions of test peptide were made across a 96-well plate containing uniform bacterial inoculum across the peptide dilutions. After bacterial growth in the presence of peptide, cell viability was assayed with resazurin. Experiments with all peptides against all bacterial species were performed with >5 replicates each.

Lactobacillus plantarum = experiment: Off-target co-culture with L. lactis, qPCR; assay type: cell-based; settings: 24 hours; probiotic at 100,000/μl CFU level; FIG. 11
Protocol: L. lactis AMP/gAMP clones were propagated from glycerol stocks and grown in GM17 broth overnight with erythromycin (5 μg/ml) with no shaking. H. pylori stocks were first propagated on Blood-TS agar overnight with microaerobic condition and >5% CO2 environment. Then colonies from the plate were transferred to a TS broth with newborn calf serum (5%) and grown overnight under microaerobic condition and >5% CO2 environment. The L. lactis cultures were serially diluted in a 96-well culture plate with TSB broth to make up a volume of 100 μL. To each well, 10 μL of the overnight H. pylori culture was added and each well volume was brought up to 200 μL with more TS broth. The plate was left to grow overnight in a microaerobic environment with >5% CO2. After 24 h, well contents from the culture plate were transferred to a 96-well PCR plate. That PCR plate was sealed and heated for 15 min at 100° C. and chilled at 4° C. for 5 min. Then the plate was centrifuged at 2000 g for 2 min and the supernatant was used as the template for qPCR. The qPCR was done using primers for VacA gene to quantify H. pylori (forward: 5′-[…]-3′ (SEQ ID NO:12), reverse: 5′-[…]-3′ (SEQ ID NO:13) and primers for acma gene for quantifying L. lactis. Standard curves for H. pylori and L. lactis were constructed by determining CT values for different dilutions of the overnight cultures of the respective bacteria (1/10, 1/100, 1/1000, 1/10000) in the qPCR plates, the CFUs for the dilutions were determined by plating on their respective agar plates.
The experimental design was identical to that described above in Example 3, with the exception of the off-target bacterium replacing the targeted H. pylori. The off-target bacteria used were Lactobacillus plantarum (gram positive) and Escherichia coli (gram negative).

Molecule: CRAMP (ISRLAGLLRKGGEKIGEKLKKIGQKIKNFFQKLVPQPE; cathelin-related anti-microbial peptide (CRAMP))
- H. pylori in co-culture (qPCR on VacA gene) (H. pylori [1]): equally toxic
- more H. pylori with the AMP versus the gAMP (H. pylori [2]): 15 fold

Molecule: Laterosporulin (ACQCPDAISGWTHTDYQCHGLENKMYRHVYAICMNGTQVYCRTEWGSSC; laterosporulin AMP)
- viability of E. coli vs empty vector baseline (E. coli): significant decrease in viability
- more H. pylori with the AMP versus the gAMP (H. pylori [2]): 2.5 fold

Molecule: Alyteserin (GLKDIFKAGLGSLVKGIAAHVAN; alyteserin AMP)
- H. pylori in co-culture (qPCR on VacA gene) (H. pylori [1]): not very effective unless fused to the guide peptide
- more H. pylori with the AMP versus the gAMP (H. pylori [2]): 15 fold
- H. pylori in mouse stomach fluid (H. pylori [3]): 2000 CFU/μl

Molecule: A12C-plectasin
- toxicity/activity against targeted staphylococci [4]: highly active

Molecule: MM1-Alyteserin (MQKMTDQVNYQAMKLTLLQKSGGGSGLKDIFKAGLGSLVKGIAAHVAN; MM1-alyteserin gAMP)
- Lactobacillus plantarum level after co-culture (Lactobacillus plantarum): 10,000 CFU/μl
- H. pylori in mouse stomach fluid (H. pylori [3]): 1500 CFU/μl

B1: MM1-Laterosporulin (protein)
chain: MQKMTDQVNYQAMKLTLLQKSGGGSACQCPDAISGWTHTDYQCHGLENKMYRHVYAICMNGTQVYCRTEWGSSC
modifications: MM1-laterosporulin gAMP
- viability of E. coli vs empty vector baseline (E. coli): no significant difference
- Lactobacillus plantarum level after co-culture (Lactobacillus plantarum): 10,000 CFU/μl

B2: MM1-CRAMP (protein)
chain: MQKMTDQVNYQAMKLTLLQKSGGGSISRLAGLLRKGGEKIGEKLKKIGQKIKNFFQKLVPQPE
modifications: MM1-CRAMP gAMP
- H. pylori in co-culture (qPCR on VacA gene) (H. pylori [1]): equally toxic
- Lactobacillus plantarum level after co-culture (Lactobacillus plantarum): 2500 CFU/μl
